Biological target: T1, WT GlyT2 (Homo sapiens, UniProt Q9Y345)
T1 sequence (Q9Y345 1-797): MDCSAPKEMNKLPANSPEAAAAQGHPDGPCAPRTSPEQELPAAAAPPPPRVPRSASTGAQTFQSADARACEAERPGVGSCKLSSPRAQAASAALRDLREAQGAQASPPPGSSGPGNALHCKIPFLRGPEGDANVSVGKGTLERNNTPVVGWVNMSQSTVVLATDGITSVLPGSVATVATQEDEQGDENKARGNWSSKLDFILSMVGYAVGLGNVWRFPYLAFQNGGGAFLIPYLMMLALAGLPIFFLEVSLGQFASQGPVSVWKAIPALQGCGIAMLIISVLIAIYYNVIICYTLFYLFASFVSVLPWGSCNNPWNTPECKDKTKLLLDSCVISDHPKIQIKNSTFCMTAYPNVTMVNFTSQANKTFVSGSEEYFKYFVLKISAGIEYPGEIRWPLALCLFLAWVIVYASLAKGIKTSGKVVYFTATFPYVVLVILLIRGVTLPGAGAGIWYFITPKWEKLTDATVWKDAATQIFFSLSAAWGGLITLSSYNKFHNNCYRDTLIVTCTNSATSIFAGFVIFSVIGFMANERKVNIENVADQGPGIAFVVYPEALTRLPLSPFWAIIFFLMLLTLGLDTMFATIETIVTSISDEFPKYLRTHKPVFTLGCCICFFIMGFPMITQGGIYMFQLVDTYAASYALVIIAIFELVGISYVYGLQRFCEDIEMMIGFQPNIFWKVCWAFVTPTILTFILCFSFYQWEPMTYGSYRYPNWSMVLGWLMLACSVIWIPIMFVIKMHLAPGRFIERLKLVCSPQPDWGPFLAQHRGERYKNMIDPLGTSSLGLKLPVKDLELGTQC
Conditions: read-out: Glycine EC50; WT GlyT2 in Xenopus laevis oocytes; glycine 1 μM – 3 mM
Protocol: The transport activity of GlyT2 is an electrogenic process as it couples the transport of glycine to the co-transport of 3 Na^+ and 1 Cl^− and thus can be measured using two-electrode voltage-clamp electrophysiology. Oocytes expressing GlyTs were voltage-clamped at −60 mV, and glycine-induced whole-cell currents were measured using a GeneClamp 500 amplifier (Axon Instruments), and a PowerLab 2/26 chart recorder (ADInstruments) and LabChart Software (ADInstruments).
Functionality of WT and mutant GlyT2 transporters was assessed by applying increasing concentrations of glycine (1–3,000 µM) in ND96 until a stable current was achieved. Glycine concentrations were applied individually and completely removed from the system via washing with recording buffer before proceeding to the next concentration. EC50 values for each transporter were determined by fitting concentration–response data to the modified Michaelis–Menten equation: I=([Gly].Imax)/(EC50+[Gly]), where I is current in nA, [Gly] is the concentration of glycine, Imax is the current generated by a maximal concentration of glycine, and EC50 is the concentration of glycine that generates a half-maximal current.

For `NCC(=O)O` [Glycine, glycine], the EC50 was 18 µM.
